According to US8642788B2, “Activators of executioner procaspases 3, 6 and 7” (The Regents of the University of California, priority 2008, dated 2014):
Where two headings read alike, the source gives them in different places.

Key:
Type in all cases: biochemical
[1] = biological target: T1, procaspase-7 (Homo sapiens, UniProt P55210); assay: Executioner procaspase-7 activation assay (Ac-DEVD-AFC fluorogenic substrate); details: incubation with compound for 5 h at 37° C.; 100 nM procaspase
T1 construct: His6 (C); made in house; host or cells: E. coli BL21(DE3)RP, pET-21b
T1 sequence (P55210 1-303): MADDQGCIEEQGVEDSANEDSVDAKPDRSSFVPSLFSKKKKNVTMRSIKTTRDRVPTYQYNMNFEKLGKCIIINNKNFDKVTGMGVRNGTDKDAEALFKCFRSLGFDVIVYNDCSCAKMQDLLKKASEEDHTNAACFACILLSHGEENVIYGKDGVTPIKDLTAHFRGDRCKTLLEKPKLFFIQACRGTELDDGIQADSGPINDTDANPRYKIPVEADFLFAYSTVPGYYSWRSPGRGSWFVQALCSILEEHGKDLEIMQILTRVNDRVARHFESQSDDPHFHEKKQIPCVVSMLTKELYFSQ
Method in brief: (§1)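 Procaspase at 100 nM incubated with compound (100 nM–100 μM) in 50 mM HEPES pH 7.4, KCl, DTT, 0.01% Triton X-100, 3% DMSO, 37 °C for 5 h; then 25 μM Ac-DEVD-AFC (procaspase-7) or Ac-VEID-AFC (procaspase-6), kinetic fluorescence 30 min (ex 365/em 495); EC50 reported.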

[2] = biological target: T2, procaspase-6 (Homo sapiens, UniProt P55212); assay: Executioner procaspase-6 activation assay (Ac-VEID-AFC fluorogenic substrate); details: incubation with compound for 5 h at 37° C.; 100 nM procaspase
T2 sequence (P55212 1-293): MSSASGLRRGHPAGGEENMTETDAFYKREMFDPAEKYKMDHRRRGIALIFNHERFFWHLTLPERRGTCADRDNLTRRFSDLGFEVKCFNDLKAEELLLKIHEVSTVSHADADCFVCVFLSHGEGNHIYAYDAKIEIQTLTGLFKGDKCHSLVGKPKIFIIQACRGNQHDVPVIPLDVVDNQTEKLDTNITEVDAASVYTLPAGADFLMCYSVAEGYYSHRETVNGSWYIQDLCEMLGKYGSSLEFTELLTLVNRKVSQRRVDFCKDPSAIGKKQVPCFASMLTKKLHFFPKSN
Method in brief: as §1

[3] = biological target: T3, procaspase-3 (Homo sapiens, UniProt P42574); assay: Executioner procaspase-3 activation assay (Ac-DEVD-AFC fluorogenic substrate)
T3 construct: His6 (C); made in house; host or cells: E. coli BL21(DE3)RP, pET-23b
T3 sequence (P42574 1-277): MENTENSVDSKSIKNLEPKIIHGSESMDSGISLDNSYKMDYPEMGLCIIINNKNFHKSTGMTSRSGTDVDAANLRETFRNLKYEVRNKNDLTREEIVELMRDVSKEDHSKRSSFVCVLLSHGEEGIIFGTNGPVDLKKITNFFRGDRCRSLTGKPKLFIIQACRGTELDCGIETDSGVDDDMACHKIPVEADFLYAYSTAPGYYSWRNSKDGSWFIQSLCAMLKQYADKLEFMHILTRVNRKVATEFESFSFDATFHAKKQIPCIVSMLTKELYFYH
Method in brief: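 Procaspase-3 at 100 nM was incubated with activating compounds (100 nM to 100 uM) in 50 mM HEPES pH 7.4, 50 mM KCl, 1 mM DTT and 0.01% Triton-X100, the detergent limiting aggregation artefacts. Protein, substrate and inhibitor were kept as frozen aliquots and thawed just before use.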

[4] = incubation with compound for 5 h at 37° C., 100 nM procaspase, read-out: Procaspase Activation 3

Row | EC50 [1] | EC50 [2] | EC50 [3, 4] | Structure (SMILES) | EC50 [3]
1 | > 100 µM | > 100 µM | > 100 µM | COc1ccc(-c2cccc(NC(=O)c3cc4cccc(OC)c4oc3=O)c2)cn1 [compound 130, 8-Methoxy-2-oxo-2H-chromene-3-carboxylic acid [3-(6-methoxy-pyridin-3-yl)-phenyl]-amide] | –
2 | 10 to 50 µM | > 100 µM | 10 to 50 µM | O=C(Nc1cccc(-c2ccccc2S(=O)(=O)N2CCOCC2)c1)c1cc2cccc(O)c2oc1=O [compound 98, 8-Hydroxy-2-oxo-2H-chromene-3-carboxylic acid (2′-(Morpholine-4-sulfonyl)-biphenyl-3-yl)-amide] | –
3 | > 100 µM | > 100 µM | > 100 µM | N#Cc1ccccc1-c1cccc(NC(=O)c2cc3cccc(O)c3oc2=O)c1 [compound 89, 8-Hydroxy-2-oxo-2H-chromene-3-carboxylic acid (2′-cyano-biphenyl-3-yl)-amide] | –
4 | > 100 µM | > 100 µM | > 100 µM | COc1ccc(-c2cccc(NC(=O)c3cc4cccc(O)c4oc3=O)c2)cn1 [compound 129, 8-Hydroxy-2-oxo-2H-chromene-3-carboxylic acid [3-(6-methoxy-pyridin-3-yl)-phenyl]-amide] | –
5 | > 100 µM | > 100 µM | > 100 µM | CCOc1ncccc1-c1cccc(NC(=O)c2cc3cccc(OC)c3oc2=O)c1 [compound 42, 8-Methoxy-2-oxo-2H-chromene-3-carboxylic acid [3-(2-ethoxy-pyridin-3-yl)-phenyl]-amide] | –
6 | > 100 µM | > 100 µM | > 100 µM | COc1cccc2cc(C(=O)Nc3cccc(-c4ccc5c(ccn5C)c4)c3)c(=O)oc12 [compound 164, 8-Methoxy-2-oxo-2H-chromene-3-carboxylic acid [3-(1-methyl-1H-indol-5-yl)-phenyl]-amide] | –
7 | > 100 µM | > 100 µM | > 100 µM | COc1cccc2cc(C(=O)Nc3cccc(-c4ccccc4S(=O)(=O)N4CCOCC4)c3)c(=O)oc12 [compound 99, 8-Methoxy-2-oxo-2H-chromene-3-carboxylic acid (2′-(Morpholine-4-sulfonyl)-biphenyl-3-yl)-amide] | –
8 | 0.5 to 10 µM | > 100 µM | > 100 µM | COc1ccc(-c2cccc(NC(=O)c3cc4cccc(O)c4oc3=O)c2)cc1OC [compound 53, 8-Hydroxy-2-oxo-2H-chromene-3-carboxylic acid (3′,4′-Dimethoxy-biphenyl-3-yl)-amide] | –
9 | > 100 µM | > 100 µM | > 100 µM | COc1cccc2cc(C(=O)Nc3cccc(-c4ccc(O)nc4)c3)c(=O)oc12 [compound 140, 8-Methoxy-2-oxo-2H-chromene-3-carboxylic acid [3-(6-hydroxy-pyridin-3-yl)-phenyl]-amide] | –
10 | > 100 µM | > 100 µM | > 100 µM | COc1ccc(-c2cccc(NC(=O)c3cc4cccc(O)c4oc3=O)c2)c(OC)c1 [compound 50, 8-Hydroxy-2-oxo-2H-chromene-3-carboxylic acid (2′,4′-dimethoxy-biphenyl-3-yl)-amide] | –
11 | > 100 µM | > 100 µM | > 100 µM | COc1ccc(-c2cccc(NC(=O)c3cc4cccc(OC)c4oc3=O)c2)cc1C [compound 48, 8-Methoxy-2-oxo-2H-chromene-3-carboxylic acid (4′-Methoxy-3′-methyl-biphenyl-3-yl)-amide] | –
12 | > 100 µM | > 100 µM | > 100 µM | COc1ccc2cc(-c3cccc(NC(=O)c4cc5cccc(OC)c5oc4=O)c3)ccc2c1 [compound 78, 8-Methoxy-2-oxo-2H-chromene-3-carboxylic acid [3-(6-methoxy-naphthalen-2-yl)-phenyl]-amide] | –

Continued, molecule first:

Row | Structure (SMILES) | EC50 [1] | EC50 [2] | EC50 [3, 4] | EC50 [3]
13 | O=C(Nc1cccc(-c2cc(F)cc(F)c2)c1)c1cc2cccc(O)c2oc1=O [compound 177, 8-Hydroxy-2-oxo-2H-chromene-3-carboxylic acid (3′,5′-difluoro-biphenyl-3-yl)-amide] | > 100 µM | > 100 µM | > 100 µM | –
14 | O=C(Nc1cccc(-c2cncnc2)c1)c1cc2cccc(O)c2oc1=O [compound 135, 8-Hydroxy-2-oxo-2H-chromene-3-carboxylic acid (3-pyrimidin-5-yl-phenyl)-amide] | > 100 µM | > 100 µM | > 100 µM | –
15 | Cn1ccc2cc(-c3cccc(NC(=O)c4cc5cccc(O)c5oc4=O)c3)ccc21 [compound 163, 8-Hydroxy-2-oxo-2H-chromene-3-carboxylic acid [3-(1-methyl-1H-indol-5-yl)-phenyl]-amide] | > 100 µM | > 100 µM | > 100 µM | –
16 | O=C(Nc1cccc(-c2cnn(Cc3ccccc3)c2)c1)c1cc2cccc(O)c2oc1=O [compound 169, 8-Hydroxy-2-oxo-2H-chromene-3-carboxylic acid [3-(1-benzyl-1H-pyrazol-4-yl)-phenyl]-amide] | > 100 µM | > 100 µM | > 100 µM | –
17 | COc1cccc2cc(C(=O)Nc3cccc(-c4ccc5cc[nH]c5c4)c3)c(=O)oc12 [compound 166, 8-Methoxy-2-oxo-2H-chromene-3-carboxylic acid [3-(1H-indol-6-yl)-phenyl]-amide] | > 100 µM | > 100 µM | – | > 100 µM
18 | O=C(Nc1cccc(-c2ccc3c(c2)CCO3)c1)c1cc2cccc(O)c2oc1=O [compound 74, 8-Hydroxy-2-oxo-2H-chromene-3-carboxylic acid [3-(2,3-Dihydro-benzofuran-5-yl)-phenyl]-amide] | 10 to 50 µM | > 100 µM | > 100 µM | –
19 | CCOc1ncccc1-c1cccc(NC(=O)c2cc3cccc(O)c3oc2=O)c1 [compound 41, 8-Hydroxy-2-oxo-2H-chromene-3-carboxylic acid [3-(2-ethoxy-pyridin-3-yl)-phenyl]-amide] | > 100 µM | 50 to 200 µM | 10 to 50 µM | –
20 | N#Cc1cccc(-c2cccc(NC(=O)c3cc4cccc(O)c4oc3=O)c2)c1 [compound 147, 8-Hydroxy-2-oxo-2H-chromene-3-carboxylic acid (3′-cyano-biphenyl-3-yl)-amide] | > 100 µM | > 100 µM | > 100 µM | –
21 | O=C(Nc1cccc(-c2ccc3nonc3c2)c1)c1cc2cccc(O)c2oc1=O [compound 159, 8-Hydroxy-2-oxo-2H-chromene-3-carboxylic acid (3-benzo[1,2,5]oxadiazol-5-yl-phenyl)-amide] | > 100 µM | > 100 µM | > 100 µM | –
22 | O=C(Nc1cccc(-c2cccnc2)c1)c1cc2cccc(O)c2oc1=O [compound 17, 8-Hydroxy-2-oxo-2H-chromene-3-carboxylic acid (3-pyridin-3-yl-phenyl)-amide] | > 100 µM | > 100 µM | > 100 µM | –
23 | O=C(Nc1cccc(-c2ccc3ccccc3c2)c1)c1cc2cccc(OC(F)(F)F)c2oc1=O [compound 82, 8-Trifluoromethoxy-2-oxo-2H-chromene-3-carboxylic acid (3-Naphthalen-2-yl-phenyl)-amide] | > 100 µM | > 100 µM | > 100 µM | –
24 | COc1ccc(-c2cccc(NC(=O)c3cc4cccc(OC(F)(F)F)c4oc3=O)c2)cc1OC [compound 55, 8-Trifluoromethoxy-2-oxo-2H-chromene-3-carboxylic acid (3′,4′-Dimethoxy-biphenyl-3-yl)-amide] | > 100 µM | > 100 µM | > 100 µM | –
